Patent US20140066385A1, “METHOD FOR TREATING CANCER BY COMBINED USE OF DRUGS” (Astellas Pharma Inc., priority 2011, published 2014)

Target: T1, purified pig brain-derived tubulin (Sus scrofa, UniProt P02550+P02554)
T1 construct: purified pig brain-derived tubulin (final concentration: 2 mg/mL); purchased Cytoskeleton, Inc. (Denver, Colo., USA); host or cells: pig brain (tissue-purified)
Experiment: Example 7: fluorescence-based assay of tubulin polymerization reaction
Format: biochemical
Experimental: S-nitroso-N-acetyl-D,L-penicillamine (SNAP), which is a NO donor, was purchased from Cayman Chemical Co. (Ann Arbor, Mich., USA) and used. A tubulin polymerization analysis kit was purchased from Cytoskeleton, Inc. (Denver, Colo., USA) and used. For paclitaxel, a paclitaxel included in the analysis kit was used as paclitaxel. Docetaxel was purchased from Sigma-Aldrich Co. (St. Louis, Mo., USA) and was used as docetaxel.
A fluorescence-based assay of tubulin polymerization reaction was carried out according to the manufacturer's instruction of the kit. That is, purified pig brain-derived tubulin (final concentration: 2 mg/mL) and SNAP (final concentration: 200 or 500 μmol/L) were incubated at room temperature for 15 minutes or longer in the buffer solution included in the kit. Subsequently, paclitaxel (final concentration: 3 μmmol/L) or docetaxel (final concentration: 1 μmol/L), and […] (final concentration: 1 mmol/L) were added to this buffer mixture, and then was incubated for 60 minutes at 37° C. During this incubation, the fluorescence intensity (measurement wavelength: excitation 350 nm/fluorescence 435 nm) was measured every one minute by using a microplate reader (Spectramax, Molecular Devices, LLC, Sunnyvale, Calif., USA). The value of fluorescence intensity was expressed as a percentage relative to the SNAP and taxane-untreated group by using the value obtained 60 minutes after the initiation of the reaction, which corresponded to the equilibrium steady-state phase, and the average value for three experiments was taken as the value.
The results are expressed as the mean value (Mean)±standard error (SEM) of five independent experiments. A comparison between a paclitaxel- or docetaxel-treated group and an untreated group was carried out by an unpaired statistical test (Student's t-test) of the difference between two groups. A comparison between a SNAP-untreated group (control group) and SNAP-treated groups (200 μmol/L and 500 μmol/L) in the presence or absence of the taxane-family drugs was carried out by Dunnett's multiple comparison test. A difference value of less than 5% was considered to be statistically significant. For the data processing, Graphpad Prism version 5.03 was used.

[1] = SNAP 200 or 500 μmol/L, 60 minutes

T1 sequence (P02554 whole entry): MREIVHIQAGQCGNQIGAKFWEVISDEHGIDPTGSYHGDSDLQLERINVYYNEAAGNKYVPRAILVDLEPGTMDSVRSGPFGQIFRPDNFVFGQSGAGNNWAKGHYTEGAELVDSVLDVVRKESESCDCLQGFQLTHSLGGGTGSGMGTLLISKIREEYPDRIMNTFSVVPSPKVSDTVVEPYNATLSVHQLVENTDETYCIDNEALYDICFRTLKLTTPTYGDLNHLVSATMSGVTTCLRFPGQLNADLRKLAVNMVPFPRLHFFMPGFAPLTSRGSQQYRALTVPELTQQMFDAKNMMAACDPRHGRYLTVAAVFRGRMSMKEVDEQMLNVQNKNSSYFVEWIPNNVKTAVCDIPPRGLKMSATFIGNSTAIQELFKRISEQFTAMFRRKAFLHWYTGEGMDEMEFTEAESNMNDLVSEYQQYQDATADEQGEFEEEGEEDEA
T1 sequence (P02550 whole entry): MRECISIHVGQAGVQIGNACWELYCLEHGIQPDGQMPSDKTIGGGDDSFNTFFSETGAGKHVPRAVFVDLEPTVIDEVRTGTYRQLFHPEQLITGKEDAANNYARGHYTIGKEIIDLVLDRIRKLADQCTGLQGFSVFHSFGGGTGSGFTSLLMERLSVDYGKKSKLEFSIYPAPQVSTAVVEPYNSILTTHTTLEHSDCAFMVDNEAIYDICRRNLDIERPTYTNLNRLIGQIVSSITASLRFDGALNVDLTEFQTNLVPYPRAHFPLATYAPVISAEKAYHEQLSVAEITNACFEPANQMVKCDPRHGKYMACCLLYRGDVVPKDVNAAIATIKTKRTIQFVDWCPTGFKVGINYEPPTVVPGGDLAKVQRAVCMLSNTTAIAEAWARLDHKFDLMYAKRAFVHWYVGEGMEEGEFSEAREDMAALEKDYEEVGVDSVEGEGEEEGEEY

| action of SNAP on the spontaneous tubulin polymerization reaction (SNAP 200 or 500 μmol/L, absence of taxanes, 60 minutes) | action of SNAP on the tubulin polymerization reaction promoted by docetaxel [1] | action of SNAP on the tubulin polymerization reaction promoted by paclitaxel [1] | tubulin polymerization (fluorescence intensity) as compared with the taxane-untreated group (docetaxel final concentration 1 μmol/L, 60 minutes after initiation, P<0.001) [%] | SMILES |
| --- | --- | --- | --- | --- |
| significantly suppressed | significantly suppressed | significantly suppressed | – | CC(=O)NC(C(=O)O)C(C)(C)SN=O (racemic) [SNAP, S-nitroso-N-acetyl-D,L-penicillamine] |
| – | – | – | 184.1 | CC(=O)O[C@@]12CO[C@@H]1C[C@H](O)[C@@]1(C)C(=O)[C@H](O)C3=C(C)[C@@H](OC(=O)[C@H](O)[C@@H](NC(=O)OC(C)(C)C)c4ccccc4)C[C@@](O)([C@@H](OC(=O)c4ccccc4)[C@H]21)C3(C)C [docetaxel] |
